Laboratory results reported in PMC7168327, “Designed Antimicrobial Peptides for Topical Treatment of Antibiotic Resistant Acne Vulgaris” (Antibiotics, 2020).
Values after ≈ are worked out from the molar mass of the structure shown. Square brackets hold non-standard residues; d marks the D form. Peptide text beside a SMILES is read from it. Orn = NCCC[C@H](N)C(=O)O

Legend:
C. acnes ATCC11827 = type: cell-based, Cutibacterium acnes; conditions: ATCC11827, 48 h
Procedure: (§1) The ten antibiotic resistant C. acnes clinical isolates were acquired from BEI resources with the two reference strains obtained from American Type Culture Collection (ATCC, Manassas, VA, USA). C. acnes is a relatively slow-growing, typically aerotolerant anaerobic so all in vitro C. acnes experiments were performed under anaerobic conditions.
(§2) Single colonies were inoculated in Reinforced Clostridium Medium (RCM) broth supplemented with sodium thioglycolate and incubated at 37 °C, with shaking at 200 rpm, for 2 or 3 days to reach logarithmic growth (OD600nm = 1.0). Each C. acnes (1 × 10^6 CFU per mL) was incubated with dAMP or clindamycin at two-fold serial dilutions (0.5–32 μg per mL) in RCM on a 96-well microplate for 48 h. Three replicas were included for each test article concentration. Bacterial growth was measured by optical density at 600 nm to determine the MIC for each dAMP applied.

C. acnes ATCC6919 = type: cell-based, Cutibacterium acnes; conditions: ATCC6919, 48 h
Procedure: as §1, §2

C. acnes HL007PA1 = type: cell-based, Cutibacterium acnes; conditions: HL007PA1, 48 h
Procedure: as §1, §2

C. acnes HL013PA1 = type: cell-based, Cutibacterium acnes; conditions: HL013PA1, 48 h
Procedure: as §1, §2

C. acnes HL038PA1 = type: cell-based, Cutibacterium acnes; conditions: HL038PA1, 48 h
Procedure: as §1, §2

C. acnes HL043PA1 = type: cell-based, Cutibacterium acnes; conditions: HL043PA1, 48 h
Procedure: as §1, §2

C. acnes HL043PA2 = type: cell-based, Cutibacterium acnes; conditions: HL043PA2, 48 h
Procedure: as §1, §2

C. acnes HL045PA1 = type: cell-based, Cutibacterium acnes; conditions: HL045PA1, 48 h
Procedure: as §1, §2

C. acnes HL053PA1 = type: cell-based, Cutibacterium acnes; conditions: HL053PA1, 48 h
Procedure: as §1, §2

C. acnes HL056PA1 = type: cell-based, Cutibacterium acnes; conditions: HL056PA1, 48 h
Procedure: as §1, §2

C. acnes HL072PA1 = type: cell-based, Cutibacterium acnes; conditions: HL072PA1, 48 h
Procedure: as §1, §2

C. acnes HL082PA2 = type: cell-based, Cutibacterium acnes; conditions: HL082PA2, 48 h
Procedure: as §1, §2

[1] = tested on: ten C. acnes clinical isolates and two C. acnes ATCC reference strains; type: cell-based, Cutibacterium acnes; conditions: for in vitro anti-bacterial activity against the C. acnes bacterial strains (in words): 0.5–32 μg/mL concentration range evaluated; for MIC values against all C. acnes isolates: ten clinical isolates and two ATCC reference strains, 48 h
Procedure: as §1, §2

[2] = tested on: bioluminescent human immortalized keratinocytes (HaCaT); assay: Mammalian cytotoxicity, bioluminescent human keratinocytes; type: cell-based; conditions: 8 h
Procedure: (§3) Noninvasive and real-time monitoring of mammalian cytotoxicity to assess the potential skin toxicity of the dAMPs was evaluated using bioluminescent human immortalized keratinocytes (HaCaT, AddexBio, San Diego, CA, USA). The bioluminescent variant of HaCaT was constructed by transfection with a luciferase gene (RediFect Red-Fluc-Puromycin, Cat# CL596002). Keratinocytes (1 × 10^4 cells, 100 μL) were plated in 96-well black-walled plates. The candidate dAMPs were 2-fold serially diluted from 1024 µg/mL in growth medium supplemented with 150 µg/mL D-luciferin. Each concentration was performed in triplicate, with the final volume being 200 μL. Imaging was performed at select times (0, 15, and 30 min and 1, 3, 5, and 8 h) after the addition of the dAMP, and compared to concurrently run vehicle-control, using an IVIS Lumina imaging system (Caliper Life Sciences, Inc., Hopkinton, MA, USA). For imaging, the 96-well plate was positioned on the stage (12.5-cm field of view), with an open emission filter, binning of 4, and f-stop 1 and a 1-min exposure time. Data analysis was performed using the Living Image software program (version 4.3, Caliper Life Sciences, Inc.). The dAMP concentrations required to kill 10% and 50% of keratinocytes were determined using GraphPad Prism 7 (GraphPad Software, San Diego, CA, USA).

[3] = tested on: C. acnes HL043PA2 compared to human keratinocytes; type: cell-based; conditions: 8 h
Procedure: In evaluating the clinical utility of each of the candidate dAMPs for C. acnes treatment, the Therapeutic Index was determined. The Therapeutic Index is defined as the ratio of concentration at which the dAMP is active against the prokaryotic C. acnes pathogen without inducing cytotoxic damage to the surrounding mammalian cells. The EC10 and EC50 doses, defined as the concentrations required to kill 10% and 50% respectively of human keratinocytes following 8 h incubation with each of the Riptide dAMPs, are tabulated and graphed in Table 2 and Figure 3, respectively. The larger the Therapeutic Index, the greater the specificity of the dAMP for destroying C. acnes cells.
as §2, §3

SMILES | MIC (C. acnes ATCC11827) [µg/mL] | MIC (C. acnes ATCC6919) [µg/mL] | MIC (C. acnes HL007PA1) [µg/mL] | MIC (C. acnes HL013PA1) [µg/mL] | MIC (C. acnes HL038PA1) [µg/mL] | MIC (C. acnes HL043PA1) [µg/mL] | MIC (C. acnes HL043PA2) [µg/mL] | MIC (C. acnes HL045PA1) [µg/mL] | MIC (C. acnes HL053PA1) [µg/mL] | MIC (C. acnes HL056PA1) [µg/mL] | MIC (C. acnes HL072PA1) [µg/mL] | MIC (C. acnes HL082PA2) [µg/mL] | in vitro anti-bacterial activity against the C. acnes bacterial strains (in words) [1] | MIC values against all C. acnes isolates [1] [µg/mL] | EC50, concentration required to kill 50% of human keratinocytes [2] [µg/mL] | Therapeutic Index (EC10 / MIC) [3] | Therapeutic Index (EC50 / MIC) [3]
C[C@H](NC(=O)[C@H](Cc1ccccc1)NC(=O)[C@H](C)NC(=O)[C@H](Cc1ccccc1)NC(=O)[C@H](CCCN)NC(=O)[C@H](C)NC(=O)[C@H](Cc1ccccc1)NC(=O)[C@H](CCCN)NC(=O)[C@H](CCCN)NC(=O)[C@H](C)NC(=O)[C@H](Cc1ccccc1)NC(=O)[C@H](CCCN)NC(=O)[C@H](CCCN)NC(=O)[C@H](Cc1ccccc1)NC(=O)[C@H](CCCN)NC(=O)[C@H](CCCN)NC(=O)[C@H](C)NC(=O)[C@H](Cc1ccccc1)NC(=O)[C@H](CCCN)NC(=O)[C@H](CCCN)NC(=O)[C@H](C)NC(=O)[C@@H](N)Cc1ccccc1)C(=O)N[C@@H](Cc1ccccc1)C(N)=O [RP444] (H-FA[Orn][Orn]FA[Orn][Orn]F[Orn][Orn]FA[Orn][Orn]FA[Orn]FAFAF-NH2) | 8 (≈ 3.02 µM) | 2 (≈ 0.755 µM) | 4 (≈ 1.51 µM) | 4 (≈ 1.51 µM) | 4 (≈ 1.51 µM) | 4 (≈ 1.51 µM) | 8 (≈ 3.02 µM) | 4 (≈ 1.51 µM) | 4 (≈ 1.51 µM) | 4 (≈ 1.51 µM) | 8 (≈ 3.02 µM) | 2 (≈ 0.755 µM) | most active | 2 to 8 | 20 | 1.63 | 2.5
CC[C@H](C)[C@H](NC(=O)[C@H](CCCCN)NC(=O)[C@H](CC(C)C)NC(=O)[C@H](CCCN)NC(=O)[C@H](CC(C)C)NC(=O)[C@H](CCCNC(=N)N)NC(=O)[C@H](C)NC(=O)[C@H](CCCNC(=N)N)NC(=O)[C@@H](NC(=O)[C@H](CCCN)NC(=O)[C@H](Cc1ccccc1)NC(=O)[C@H](CCCNC(=N)N)NC(=O)[C@H](C)NC(=O)[C@H](CCCCN)NC(=O)[C@@H](NC(=O)[C@H](CCCN)NC(=O)[C@@H](N)Cc1ccccc1)[C@@H](C)CC)C(C)C)C(N)=O [RP553] (H-F[Orn]IKARF[Orn]VRARL[Orn]LKI-NH2) | 16 (≈ 7.72 µM) | 8 (≈ 3.86 µM) | 16 (≈ 7.72 µM) | 8 (≈ 3.86 µM) | 16 (≈ 7.72 µM) | 16 (≈ 7.72 µM) | 16 (≈ 7.72 µM) | 16 (≈ 7.72 µM) | 16 (≈ 7.72 µM) | 16 (≈ 7.72 µM) | 16 (≈ 7.72 µM) | 16 (≈ 7.72 µM) | modest anti-bacterial activity | – | 268 | – | 16.8
CC[C@H](C)[C@H](NC(=O)[C@H](Cc1ccccc1)NC(=O)[C@H](CCCN)NC(=O)[C@H](CCCCN)NC(=O)[C@H](Cc1ccccc1)NC(=O)[C@H](CCCN)NC(=O)[C@H](CCCCN)NC(=O)[C@H](C)NC(=O)[C@H](Cc1ccccc1)NC(=O)[C@H](CCCCN)NC(=O)[C@H](CCCN)NC(=O)[C@@H](NC(=O)[C@@H](N)Cc1ccccc1)[C@@H](C)CC)C(=O)N[C@@H](CCCN)C(=O)N[C@@H](CCCCN)C(=O)N[C@@H](Cc1ccccc1)C(=O)N[C@@H](C)C(=O)N[C@@H](CCCCN)C(=O)N[C@@H](Cc1ccccc1)C(=O)N[C@@H](C)C(=O)N[C@@H](Cc1ccccc1)C(=O)N[C@@H](C)C(=O)N[C@@H](Cc1ccccc1)C(N)=O [RP551] (H-FI[Orn]KFAK[Orn]FK[Orn]FI[Orn]KFAKFAFAF-NH2) | 2 to 4 | 2 (≈ 0.714 µM) | 2 (≈ 0.714 µM) | 2 (≈ 0.714 µM) | 2 (≈ 0.714 µM) | 2 (≈ 0.714 µM) | 2 (≈ 0.714 µM) | 2 (≈ 0.714 µM) | 2 (≈ 0.714 µM) | 2 (≈ 0.714 µM) | 2 to 4 | 2 (≈ 0.714 µM) | most active | 2 to 8 | 34.3 | 8.3 | 17.2
